Results on twelve compounds are retold here after US6379649B1, “Imidazo(1,2-a)pyridines as peripheral benzodiazepine receptor binding agents” (Australian Nuclear Science & Technology Organisation, priority 1998, dated 2002).

Bounds are passed on as bounds.

Series [1] deals with central benzodiazepine receptor. The series is described as follows: In vitro binding assay for central benzodiazepine receptors ([^3H]-Ro 15-1788, rat cortex membranes). The following applies: rat cortex membrane / rat brain homogenates, [^3H]-Ro 15-1788 2 nM, 25° C., 45 minutes; read-out: IC50 (nM) CBR. On the procedure: In Vitro Binding Assays for Central Benzodiazepine Receptors
Male Sprague Dawley rats are sacrificed by CO2 administration followed by cervical dislocation. Cortex is removed and placed in 20 volumes of ice-cold buffer ([…] Tris-HCl, pH 7.4) and minced finely with scissors. After homogenising the preparation will a polytron (PCU Kinematica, Bioblock, Switzerland) with one 10-second burst at a setting of 6, the suspension is centrifuged at 20,000 g for 20 minutes at 4° C. The pellets are resuspended in the previous buffer with a dounce (manual homogeniser). After the second centrifugation, the pellet is suspended in a final buffer (50 nM Tris/HCl, 0.32M sucrose, pH 7.4) to yield an appropriate protein concentration. Protein measurements are made by Lowry's method using bovine serum albumin as standard.
Non-specific binding is determined by blocking with cold Flumazenil (20 μM). Incubation is terminated by rapid filtration through Whatman GF/B glass fiber. Each sample tube and filter is immediately washed with 3 aliquots of 5 mL ice-cold […] Tris/HCl at pH 7.4. Filters are counted with a β-scintillation counter (Packard) to measure the amount of bound radioactivity. Ki and IC50 are calculated by EBDA/Ligand, iterative non-linear least squares curve-fitting programs (G. A. McPherson, J. Pharmacol. Methods 14, 213-228 (1985)).

Series [2] addresses T1, peripheral benzodiazepine receptor (Rattus norvegicus, UniProt P16257). In words: In vitro binding assay for peripheral benzodiazepine receptors ([^3H]-PK11195, rat kidney membranes). Further details: diluted kidney membrane preparation; from tissue; host or cells: rat kidney membranes (Sprague Dawley). How it is done: In Vitro Binding Assays for Peripheral Benzodiazepine Receptors
Male Sprague Dawley rats are sacrificed by CO2 administration followed by cervical dislocation. Kidneys are removed and placed in 20 volumes of ice-cold buffer ([…] Tris-HCl, pH 7.4) and minced finely with scissors. After homogenising the preparation with a polytron (PCU Kintematica, Bioblock, Switzerland) with one 10-second burst at a setting of 10, the suspension is centrifuged at 49,000 g for 15 minutes at 4° C. The pellets are resuspended in the previous buffer with a dounce (manual homogeniser) to yield an appropriate protein concentration. Protein measurements are made by Lowry's method using bovine serum albumin as standard.
Non-specific binding is determined by blocking with cold PK11195 (10 μM). Incubation is terminated by rapid filtration through Whatman GF/B glass fiber. Each sample tube and filter is immediately washed with 3 aliquots of 5 mL ice-cold […] Tris/HCl at pH 7.4. Filters are counted with a β-scintillation counter (Packard) to measure the amount of bound radioactivity. Ki and IC50 are calculated by EBDA/Ligand, iterative non-linear least squares curve-fitting programs.

The target of series [3] is T1, peripheral benzodiazepine receptor. The series is described as follows: Pretreatment (blocking) of uptake of radiolabelled compounds in rats. It is filed as in vivo. On the set-up: high uptake in the tissues which have known PBR sites; from tissue; host or cells: living rats; organs with PBR sites. The conditions noted are these: pretreatment with unlabelled substance (1 mg/kg).

By melting point is commonly meant the temperature, or range, at which the solid turns liquid. What is called IC50 is the point on the concentration scale where inhibition reaches its midpoint.

Compound `CNC(=O)Cc1c(-c2ccc(F)cc2)nc2ccc(Cl)cn12` [B] showed a melting point of 254 to 256 °C. Besides, in series [1], the IC50 came to 5.9 nM. Also, in series [2], the IC50 is above 1000 nM.
Turning to `CNC(=O)Cc1c(-c2ccc(Cl)cc2)nc2ccc(Br)cn12` [C], the melting point is 298 to 300 °C. The IC50 in series [1] is 15 nM. Also, in series [2], the half-inhibitory concentration (IC50) is 33 nM.
The corresponding values for `NC(=O)Cc1c(-c2ccc(F)cc2)nc2ccc(Cl)cn12` [Comparative Example A] are 250 to 252 °C, 170 nM and 3340 nM.
`CN(C)C(=O)Cc1c(-c2ccc(Cl)cc2)nc2ccc(Br)cn12` [D] showed a melting point of 234 to 236 °C. Also, in series [1], the half-maximal inhibitory concentration (IC50) amounted to 56.5 nM. In series [2], this compound registered an IC50 of 90 nM.
Consider `CN1C(=O)CN=C(c2ccccc2)c2cc(Cl)ccc21` [Diazepam], for which the “effect of pretreatment on uptake of activity of the radiolabelled compounds in the tissues of interest” value (from here on “effect of pretreatment”) in series [3] is reported as “only marginally”.
For the compound `CNC(=O)Cc1c(-c2ccc(I)cc2)nc2ccc(Cl)cn12` [Example 1, 6-chloro-2-(4′-iodophenyl)-imidazol[1,2-a]pyridine-3-(N-methyl)acetamide], the melting point was in the range of 308 to 310 °C. In addition, the 50% inhibitory concentration (IC50) in series [1] is above 1000 nM. The compound further registered a concentration for half-maximal inhibition (IC50) in series [2] of 0.99 nM.
The corresponding values for `CN(C)C(=O)Cc1c(-c2ccc(I)cc2)nc2ccc(Cl)cn12` [Example 2] are 216 to 218 °C, 168 nM and 2.3 nM.
On to `CCCN(C)C(=O)Cc1c(-c2ccc(I)cc2)nc2ccc(Cl)cn12` [Example 4, 6-chloro-2-(4′-iodophenyl)-imidazo[1,2-a]pyridine-3-(N-methyl, N-propyl)-acetamide], for which the melting point fell in the range of 170 to 172 °C. Moreover, the IC50 in series [1] was found to be 117 nM. Also, the concentration for half-maximal inhibition (IC50) in series [2] is 0.98 nM.
With `CCCN(CCC)C(=O)Cc1c(-c2ccc(I)cc2)nc2ccc(Cl)cn12` [Example 5, 6-chloro-2-(4′-iodophenyl)-imidazo[1,2-a]pyridine-3-(N,N-dipropyl)-acetamide], the melting point is 152 to 153 °C. Besides, the IC50 in series [1] is above 1000 nM. In addition, the IC50 in series [2] amounted to 3.91 nM.
The corresponding values for `CCCCN(CCCC)C(=O)Cc1c(-c2ccc(I)cc2)nc2ccc(Cl)cn12` [Example 7, 6-chloro-2-(4′-iodophenyl)-imidazo[1,2-a]pyridine-3-(N,N-dibutyl)-acetamide] are 250 to 252 °C, above 1000 nM and 177 nM.
With `CCOC(=O)c1ncn2c1CN(C)C(=O)c1cc(F)ccc1-2` [Flumazenil], the “effect of pretreatment” value in series [3] was “only marginally”.
Regarding `CCC(C)N(C)C(=O)c1cc2ccccc2c(-c2ccccc2Cl)n1` (stereo not drawn) [PK 11195, 1-(2-chlorophenyl)-N-methyl-N-(1-methylpropyl)-3-isoquinolinecarboxamide], the “effect of pretreatment” value in series [3] is “significantly reduced”.
